For the experiment, the system named is P388 leukemia ip, CD2F1 mice, survival T/C. As to the kind of experiment: NCI In Vivo Anticancer Drug Screen. Data for tumor model P388 Leukemia (intraperitoneal) in CD2F1 (CDF1) mice. Conditions: endpoint: median survival time, higher = longer survival. In a few lines: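 Mice carrying the transplanted tumor received test compound or vehicle. Survival was recorded in each group, and the value is the treated-group measurement divided by that of the vehicle-treated control group.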

[1] abbreviates: dose: 50.0 mg/kg/injection, schedule: Q01DX005 (ip), vehicle: Klucel (hydroxypropylcellulose) (HPC).
Setting [2] is: dose: 100.0 mg/kg/injection, schedule: Q01DX005 (ip), vehicle: Klucel (hydroxypropylcellulose) (HPC).
[3] abbreviates: dose: 200.0 mg/kg/injection, schedule: Q01DX005 (ip), vehicle: Klucel (hydroxypropylcellulose) (HPC).
[4] abbreviates: dose: 12.5 mg/kg/injection, schedule: Q01DX005 (ip), vehicle: saline.
Where [5] appears, read: dose: 25.0 mg/kg/injection, schedule: Q01DX005 (ip), vehicle: saline.
[6] abbreviates: dose: 50.0 mg/kg/injection, schedule: Q01DX005 (ip), vehicle: saline.
Where [7] appears, read: dose: 50.0 mg/kg/injection, schedule: Q01DX009 (ip), vehicle: Klucel (hydroxypropylcellulose) (HPC).
The mark [8] stands for this setting: dose: 100.0 mg/kg/injection, schedule: Q01DX009 (ip), vehicle: Klucel (hydroxypropylcellulose) (HPC).
Setting [9] is: dose: 200.0 mg/kg/injection, schedule: Q01DX009 (ip), vehicle: Klucel (hydroxypropylcellulose) (HPC).
Setting [10] is: dose: 100.0 mg/kg/injection, schedule: Q04DX003 (ip), vehicle: Klucel (hydroxypropylcellulose) (HPC).
[11] abbreviates: dose: 60.0 mg/kg/injection, schedule: Q01DX005 (ip), vehicle: saline with Tween-80.
Setting [12] is: dose: 120.0 mg/kg/injection, schedule: Q01DX005 (ip), vehicle: saline with Tween-80.
The mark [13] stands for this setting: dose: 240.0 mg/kg/injection, schedule: Q01DX005 (ip), vehicle: saline with Tween-80.

Where “and” joins values, the source holds several entries; their conditions need not be identical. Equal values may be shown once. Inconclusive results and toxic doses are left out.

From PubChem BioAssay AID330 (DTP/NCI, 2004) come the findings set out here.

Regarding `N=C=S.O=NO.O=N[O-].[Co+3].[NH-]CC[NH-].[NH-]CC[NH-]`, the T/C is 105 % of control (dose: 13.0 mg/kg/injection, schedule: Q01DX009 (ip), vehicle: saline); 113 % of control (dose: 25.0 mg/kg/injection, schedule: Q01DX009 (ip), vehicle: saline); 103 % of control (dose: 50.0 mg/kg/injection, schedule: Q01DX009 (ip), vehicle: saline).
With `O/N=C/c1cc[n+](CCC[n+]2ccc(/C=N/O)cc2)cc1`, the T/C is, setting by setting: (dose: 5.0 mg/kg/injection, schedule: Q01DX009 (ip), vehicle: saline) 100 % of control; (dose: 10.0 mg/kg/injection, schedule: Q01DX009 (ip), vehicle: saline) 90 % of control; (dose: 20.0 mg/kg/injection, schedule: Q01DX009 (ip), vehicle: saline) 100 % of control.
Consider `O=C(O)CC1CCC1CC(=O)O` (stereo not given), for which the T/C runs as follows: (dose: 50.0 mg/kg/injection, schedule: Q01DX009 (ip), vehicle: saline with Tween-80) 95 % of control; (dose: 100.0 mg/kg/injection, schedule: Q01DX009 (ip), vehicle: saline with Tween-80) 95 % of control.
In the case of `COC(=O)C12c3ccccc3C3C(c4ccccc41)C32` (stereo not given), the T/C was 102 % of control (dose: 100.0 mg/kg/injection, schedule: Q04DX003 (ip), vehicle: saline) and 96 % of control (dose: 200.0 mg/kg/injection, schedule: Q04DX003 (ip), vehicle: saline).
As to `CC(C)(C)[Si](C)(C)OC[C@@H]1OC=CC(=O)[C@H]1O`, the T/C under setting [1] is 102 % of control, the T/C under setting [2] is 94 % of control and the T/C under setting [3] was 101 % of control.
In the case of `C1CNC(N2CCN(C3=NCCN3)CC2)=N1`, the T/C was 104 % of control under setting [1] and 100 % of control under setting [2].
For `OC(CC1CC2(CCN1)OCCO2)c1ccccc1` (stereo not given), the T/C by setting is: under setting [4], 105 % of control; under setting [5], 105 % of control; under setting [6], 108 % of control.
As for `CC1(C)OC2C(CCP(=O)(O)O)OC(c3nc(C(N)=O)cs3)C2O1` (stereo not given), the T/C runs as follows: (dose: 100.0 mg/kg/injection, schedule: Q04DX003 (ip), vehicle: suspension in saline) 99 % of control; (dose: 200.0 mg/kg/injection, schedule: Q04DX003 (ip), vehicle: suspension in saline) 100 % of control; (dose: 400.0 mg/kg/injection, schedule: Q04DX003 (ip), vehicle: suspension in saline) 119 % of control.
Consider `Cc1ccc(-c2csc3nc(C)c(CN4CCCCC4)c(=O)n23)cc1`, for which the T/C (dose: 75.0 mg/kg/injection, schedule: Q04DX002 (ip), vehicle: Klucel (hydroxypropylcellulose) (HPC)) is 113 % of control; the T/C (dose: 150.0 mg/kg/injection, schedule: Q04DX002 (ip), vehicle: Klucel (hydroxypropylcellulose) (HPC)) is 103 % of control; the T/C (dose: 300.0 mg/kg/injection, schedule: Q04DX002 (ip), vehicle: Klucel (hydroxypropylcellulose) (HPC)) was 113 % of control.
Take `CC1=CC(=O)C(O)C2(C)C1CC1OC(=O)C(OC(=O)CC(C)(C)O)C3C(C)C(O)C4(O)OCC13C42` (stereo not given): the T/C (dose: 0.5 mg/kg/injection, schedule: Q01DX009 (ip), vehicle: saline + alcohol) was 115 % of control; the T/C (dose: 1.0 mg/kg/injection, schedule: Q01DX009 (ip), vehicle: saline + alcohol) was 118 % of control; the T/C (dose: 2.0 mg/kg/injection, schedule: Q01DX009 (ip), vehicle: saline + alcohol) was 119 % of control; the T/C (dose: 8.0 mg/kg/injection, schedule: Q01DX009 (ip), vehicle: saline + alcohol) was 118 % of control.
With `CC(=O)NC1=C(Cl)C(=O)c2ccccc2C1=O`, the T/C is, setting by setting: (dose: 0.78 mg/kg/injection, schedule: Q01DX009 (ip), vehicle: Klucel (hydroxypropylcellulose) (HPC)) 98 % of control; (dose: 1.56 mg/kg/injection, schedule: Q01DX009 (ip), vehicle: Klucel (hydroxypropylcellulose) (HPC)) 100 % of control; (dose: 3.13 mg/kg/injection, schedule: Q01DX009 (ip), vehicle: Klucel (hydroxypropylcellulose) (HPC)) 107 % of control; (dose: 6.25 mg/kg/injection, schedule: Q01DX009 (ip), vehicle: Klucel (hydroxypropylcellulose) (HPC)) 104 % of control and 88 % of control.
Take `COc1ccc(-c2cc(=O)c3c(O)cc(O)cc3o2)cc1Oc1ccc(-c2cc(=O)c3c(O)cc(O)cc3o2)cc1`: the T/C (dose: 60.0 mg/kg/injection, schedule: Q01DX005 (ip), vehicle: Klucel (hydroxypropylcellulose) (HPC)) is 96 % of control; the T/C (dose: 120.0 mg/kg/injection, schedule: Q01DX005 (ip), vehicle: Klucel (hydroxypropylcellulose) (HPC)) was 96 % of control; the T/C (dose: 240.0 mg/kg/injection, schedule: Q01DX005 (ip), vehicle: Klucel (hydroxypropylcellulose) (HPC)) is 88 % of control.
`CC(=O)Oc1cccnc1C(C#N)C#N`: the T/C is 108 % of control (dose: 12.5 mg/kg/injection, schedule: Q01DX005 (ip), vehicle: saline with Tween-80) and 94 % of control (dose: 25.0 mg/kg/injection, schedule: Q01DX005 (ip), vehicle: saline with Tween-80).
For `COc1cc2c(cc1OC)C13CCN4CC5=CCOC6CC(=O)N2C1C6C5C3C4` (stereo not given) (tested in a mixture with another compound), the T/C was 90 % of control under setting [4], 95 % of control under setting [5] and 98 % of control under setting [6].
For `CN(C)c1ccc(C=Nc2ccc3ccc4cccc5ccc2c3c45)cc1`, the T/C by setting is: under setting [7], 101 % of control; under setting [8], 102 % of control; under setting [9], 102 % of control.
Turning to `NC(=NCCSCc1ccccc1)NCCc1cnc[nH]1`, the T/C was 102 % of control (dose: 100.0 mg/kg/injection, schedule: Q01DX001 (ip), vehicle: saline with Tween-80); 102 % of control (dose: 200.0 mg/kg/injection, schedule: Q01DX001 (ip), vehicle: saline with Tween-80); 98 % of control (dose: 400.0 mg/kg/injection, schedule: Q01DX001 (ip), vehicle: saline with Tween-80).
Take `C[N+](C)(Cc1ccccc1)[N-]C(=N)c1ccccc1`: the T/C (dose: 12.5 mg/kg/injection, schedule: Q04DX003 (ip), vehicle: Klucel (hydroxypropylcellulose) (HPC)) is 105 % of control; the T/C (dose: 25.0 mg/kg/injection, schedule: Q04DX003 (ip), vehicle: Klucel (hydroxypropylcellulose) (HPC)) is 101 % of control; the T/C (dose: 50.0 mg/kg/injection, schedule: Q04DX003 (ip), vehicle: Klucel (hydroxypropylcellulose) (HPC)) was 100 % of control; the T/C under setting [10] is 103 % of control.
Turning to `CCC/C=C(\CC)COC(=O)Nc1ccccc1`, the T/C (dose: 50.0 mg/kg/injection, schedule: Q01DX005 (ip), vehicle: saline with Tween-80) was 86 % of control and the T/C (dose: 100.0 mg/kg/injection, schedule: Q01DX005 (ip), vehicle: saline with Tween-80) is 100 % of control.
Turning to `N#CC(C(=O)CCC(=O)C(C#N)c1ccccc1Cl)c1ccccc1Cl` (stereo not given), the T/C under setting [11] is 104 % of control, the T/C under setting [12] was 114 % of control and the T/C under setting [13] was 111 % of control.
With `COc1ccc2c(=O)c(-c3ccc(OC)c(OC)c3OCc3ccccc3)coc2c1`, the T/C by setting is: (dose: 100.0 mg/kg/injection, schedule: Q01DX001 (ip), vehicle: Klucel (hydroxypropylcellulose) (HPC)) 92 % of control; (dose: 200.0 mg/kg/injection, schedule: Q01DX001 (ip), vehicle: Klucel (hydroxypropylcellulose) (HPC)) 96 % of control; (dose: 400.0 mg/kg/injection, schedule: Q01DX001 (ip), vehicle: Klucel (hydroxypropylcellulose) (HPC)) 94 % of control.
As to `Fc1ccc(CN2COc3c(ccc4cccnc34)C2)c(F)c1`, the T/C by setting is: under setting [10], 95 % of control; (dose: 200.0 mg/kg/injection, schedule: Q04DX003 (ip), vehicle: Klucel (hydroxypropylcellulose) (HPC)) 112 % of control; (dose: 400.0 mg/kg/injection, schedule: Q04DX003 (ip), vehicle: Klucel (hydroxypropylcellulose) (HPC)) 89 % of control.
Regarding `Nc1c(C(=O)O)c(Br)cc2c1C(=O)c1ccccc1C2=O`, the T/C by setting is: under setting [1], 99 % of control; under setting [2], 99 % of control; under setting [3], 107 % of control.
Regarding `O=C1CCCCC(=O)Nc2ccc3nc4ccccc4c(c3c2)SCCCCCCCCSc2c3ccccc3nc3ccc(cc23)N1`, the T/C under setting [11] was 101 % of control, the T/C under setting [12] is 110 % of control and the T/C under setting [13] was 91 % of control.
Regarding `Cn1c(N2CCN(CCO)CC2)nc2c1c(=O)n(CC(O)CN1CCN(CCO)CC1)c(=O)n2C` (stereo not given), the T/C was 89 % of control under setting [7], 97 % of control under setting [8] and 107 % of control under setting [9].
